Assay results as given in patent publication US12291514B1, “Ethyl 2-[9-(2-hydroxypyridin-3-yl)-3,6-diphenyl-1,8-dioxo-3,4,9,10-tetrahydroacridine-10-yl]-acetate as an antimicrobial compound” (KING FAISAL UNIVERSITY, priority 2023, dated 2025).

Tests used:
Type in all cases: cell-based
Details in all cases: after 10, 20, 40 and 60 minutes at all dilutions 1:100, 1:200, 1:400, 1:800
[1] = tested on: Candida albicans; test: Antimicrobial screening by agar dilution, Candida albicans
Description: (§1) The antibacterial properties of the synthesized compound, ethyl 2-[9-(2-hydroxypyridin-3-yl)-3,6-diphenyl-1,8-dioxo-3,4,9,10-tetrahydroacridine-10-yl]-acetate, were studied by the method of agar dilution. Test solutions of each compound was prepared in concentration of 1% using dimethylformamide as a solvent then they are diluted in physiological solution to obtain the final experimental dilutions 1:100, 1:200, 1:400, 1:800. The effect of these substances are compared with furacillin in a controllable study. The testing microbes used were gram positive bacteria Staphylococcus aureus, gram negative bacteria Pseudomonas aeruginosa and Escherichia coli and Candida albicans fungus. The experiments used for this survey were meat-pentonlu agar (EPA) for cultivation of bacteria and Saburo environment for the fungus. Each experiment used 1 mL of test solution on each plate […]. Two drops of emulsified with microbes feel were added. All experimental samples were taken from the agar after 10, 20, 40, 60 minutes in the environment on the basis of Patrk planted. The bacteria were cultivated at a temperature of 37° C. for 1 day and the mushroom was kept in a thermostat for 2 hours at a temperature of 28° C. Then results were checked.

[2] = tested on: Pseudomonas aeruginosa; test: Antimicrobial screening by agar dilution, Ps. aeruginosa
Description: as §1

[3] = tested on: Staphylococcus aureus; test: Antimicrobial screening by agar dilution, St. Aereus
Description: as §1

[4] = tested on: Escherichia coli; test: Antimicrobial screening by agar dilution, E. Coli
Description: as §1

Measured: inhibition activity (in words)

CCOC(=O)CN1C2=C(C(=O)CC(c3ccccc3)C2)C(c2cccnc2O)C2=C1CC(c1ccccc1)CC2=O (stereo not shown) [ethyl 2-[9-(2-hydroxypyridin-3-yl)-3,6-diphenyl-1,8-dioxo-3,4,9,10-tetrahydroacridine-10-yl]-acetate]
highest inhibition activity: all assays above
